Experimental data: patent publication US20260193264A1, “BENZOYPARAZINE PYRAZINES AND THEIR USES” (FOGHORN THERAPEUTICS INC., priority 2022, published 2026)

Columns and labels:
[1] = target: T1, HiBiT-BRM fusion protein in stable HeLa cell line (Homo sapiens, UniProt P51531); test: HiBiT-BRM cell-based degradation assay (Nano-Glo HiBiT Lytic Detection, 24 h); design: DC50: scale not given here; conditions: HeLa HiBiT-BRM cells; for DC50: read-out: BRM HiBit Degradation IC50; for BRM HiBit Degradation Maximum (%): top dose 30 μM
T1 construct: expressed in transfected cells
Outline: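 Stable HiBiT-BRM HeLa cells were treated with 10-point 3-fold serial dilutions (30 μM final top dose, duplicate) for 24 h, then lysed with LgBiT-containing detection reagent and luminescence read. Degradation % was normalised to DMSO (high control) and 2 μM reference BRM/BRG1 degrader (low control).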

[2] = target: T2, HiBit-BRG1 fusion protein in stable HeLa cell line expressing HiBit-BRG1 and LgBit (Homo sapiens, UniProt P51532); test: HiBiT-BRG1 cell-based degradation assay (Nano-Glo HiBiT, 24 h); conditions: HeLa HiBit-BRG1/LgBit cells; for Dmax: top dose 30 μM, read-out: BRG1 HiBit Degradation Maximum (%); for DC50: read-out: BRMG1 HiBit Degradation IC50
T2 construct: expressed in transfected cells
Outline: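 Stable HeLa line co-expressing HiBiT-BRG1 and LgBiT, compound-treated 24 h; luminescence read after Nano-Glo HiBiT lytic reagent. % degradation normalised between DMSO (high control) and 2 μM reference BRM/BRG1 degrader (low control).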

T1 sequence (P51531 whole entry, the tested form may be a part): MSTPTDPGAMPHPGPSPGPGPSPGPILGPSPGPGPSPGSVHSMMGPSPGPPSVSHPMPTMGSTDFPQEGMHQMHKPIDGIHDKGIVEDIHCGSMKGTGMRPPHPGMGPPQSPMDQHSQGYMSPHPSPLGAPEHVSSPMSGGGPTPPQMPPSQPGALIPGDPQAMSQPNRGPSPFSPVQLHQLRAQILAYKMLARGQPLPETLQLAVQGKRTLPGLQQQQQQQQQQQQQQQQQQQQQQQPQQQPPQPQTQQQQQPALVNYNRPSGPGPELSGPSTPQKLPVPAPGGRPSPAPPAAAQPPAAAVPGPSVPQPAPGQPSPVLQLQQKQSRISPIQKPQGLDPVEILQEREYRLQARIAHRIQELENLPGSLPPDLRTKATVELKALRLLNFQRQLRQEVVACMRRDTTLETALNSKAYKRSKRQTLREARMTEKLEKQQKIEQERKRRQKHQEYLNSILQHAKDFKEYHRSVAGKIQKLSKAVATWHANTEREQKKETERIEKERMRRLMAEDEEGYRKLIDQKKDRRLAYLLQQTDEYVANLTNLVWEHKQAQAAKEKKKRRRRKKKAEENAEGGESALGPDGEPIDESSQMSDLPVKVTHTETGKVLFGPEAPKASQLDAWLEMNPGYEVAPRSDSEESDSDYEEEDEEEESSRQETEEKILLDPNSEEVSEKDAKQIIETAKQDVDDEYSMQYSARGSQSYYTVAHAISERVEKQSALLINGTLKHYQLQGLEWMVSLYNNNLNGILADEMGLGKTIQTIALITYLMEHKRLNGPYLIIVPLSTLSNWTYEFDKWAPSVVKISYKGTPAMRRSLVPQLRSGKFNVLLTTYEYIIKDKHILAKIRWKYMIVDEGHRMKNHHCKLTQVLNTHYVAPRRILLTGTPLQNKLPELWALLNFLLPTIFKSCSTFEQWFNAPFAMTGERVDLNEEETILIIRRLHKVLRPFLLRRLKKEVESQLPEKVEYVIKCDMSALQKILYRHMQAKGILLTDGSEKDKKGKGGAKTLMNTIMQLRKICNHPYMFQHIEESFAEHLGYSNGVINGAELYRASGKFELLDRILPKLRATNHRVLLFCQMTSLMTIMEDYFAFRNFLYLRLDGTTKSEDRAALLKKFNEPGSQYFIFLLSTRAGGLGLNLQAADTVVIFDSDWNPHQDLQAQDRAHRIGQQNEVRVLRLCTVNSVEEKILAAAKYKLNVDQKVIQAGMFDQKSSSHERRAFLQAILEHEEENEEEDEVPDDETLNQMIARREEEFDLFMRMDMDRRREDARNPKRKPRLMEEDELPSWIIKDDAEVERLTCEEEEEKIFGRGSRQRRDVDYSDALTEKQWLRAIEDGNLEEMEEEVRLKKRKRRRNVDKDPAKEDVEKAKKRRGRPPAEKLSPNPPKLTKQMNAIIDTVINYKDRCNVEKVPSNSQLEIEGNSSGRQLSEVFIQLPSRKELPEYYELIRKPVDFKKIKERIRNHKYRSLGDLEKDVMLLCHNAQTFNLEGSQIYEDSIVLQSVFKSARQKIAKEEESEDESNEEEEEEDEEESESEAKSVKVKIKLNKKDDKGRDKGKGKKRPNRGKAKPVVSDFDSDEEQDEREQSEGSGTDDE
T2 sequence (P51532 whole entry, the tested form may be a part): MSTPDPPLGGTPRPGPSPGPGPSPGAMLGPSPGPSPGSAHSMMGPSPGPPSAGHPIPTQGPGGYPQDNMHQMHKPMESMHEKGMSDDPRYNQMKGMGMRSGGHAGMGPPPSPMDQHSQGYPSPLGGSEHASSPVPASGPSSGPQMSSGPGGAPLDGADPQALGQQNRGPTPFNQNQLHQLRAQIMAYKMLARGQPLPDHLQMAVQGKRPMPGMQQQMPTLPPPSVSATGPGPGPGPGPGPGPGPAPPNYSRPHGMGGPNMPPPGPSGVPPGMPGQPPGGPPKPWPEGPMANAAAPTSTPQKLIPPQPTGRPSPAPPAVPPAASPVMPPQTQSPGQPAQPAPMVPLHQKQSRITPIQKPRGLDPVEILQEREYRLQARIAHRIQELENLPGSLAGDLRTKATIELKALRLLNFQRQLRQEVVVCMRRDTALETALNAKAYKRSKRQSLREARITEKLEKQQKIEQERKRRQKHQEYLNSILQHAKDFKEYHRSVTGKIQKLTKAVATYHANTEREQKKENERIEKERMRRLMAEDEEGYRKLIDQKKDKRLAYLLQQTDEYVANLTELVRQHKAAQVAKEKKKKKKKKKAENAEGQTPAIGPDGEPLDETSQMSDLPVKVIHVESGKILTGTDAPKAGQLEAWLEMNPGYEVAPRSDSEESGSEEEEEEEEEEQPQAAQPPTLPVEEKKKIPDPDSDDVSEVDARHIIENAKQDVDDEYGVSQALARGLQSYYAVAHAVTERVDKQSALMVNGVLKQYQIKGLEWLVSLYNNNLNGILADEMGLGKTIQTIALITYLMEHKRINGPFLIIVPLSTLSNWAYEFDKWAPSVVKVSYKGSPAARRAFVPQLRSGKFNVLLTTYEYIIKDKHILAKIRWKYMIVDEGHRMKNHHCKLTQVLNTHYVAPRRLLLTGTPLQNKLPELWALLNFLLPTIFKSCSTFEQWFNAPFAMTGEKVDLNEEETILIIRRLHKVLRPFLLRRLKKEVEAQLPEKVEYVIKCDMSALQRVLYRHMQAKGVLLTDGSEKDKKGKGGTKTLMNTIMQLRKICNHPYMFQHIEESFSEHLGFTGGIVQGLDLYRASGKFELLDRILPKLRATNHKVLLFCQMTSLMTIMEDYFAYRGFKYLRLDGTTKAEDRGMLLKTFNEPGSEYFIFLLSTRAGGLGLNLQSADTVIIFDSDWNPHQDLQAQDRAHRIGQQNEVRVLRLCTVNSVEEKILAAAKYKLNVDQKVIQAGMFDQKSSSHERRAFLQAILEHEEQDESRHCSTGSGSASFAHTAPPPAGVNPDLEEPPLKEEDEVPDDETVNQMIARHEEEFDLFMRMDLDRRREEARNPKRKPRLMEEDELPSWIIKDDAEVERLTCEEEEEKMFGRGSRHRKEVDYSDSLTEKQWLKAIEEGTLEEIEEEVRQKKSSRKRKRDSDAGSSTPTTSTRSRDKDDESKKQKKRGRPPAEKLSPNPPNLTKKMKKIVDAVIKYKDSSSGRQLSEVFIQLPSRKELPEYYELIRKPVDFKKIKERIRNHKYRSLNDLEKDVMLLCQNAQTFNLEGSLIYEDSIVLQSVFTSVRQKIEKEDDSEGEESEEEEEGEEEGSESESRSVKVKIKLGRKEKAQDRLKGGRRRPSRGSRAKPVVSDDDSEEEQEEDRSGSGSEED

Structure (SMILES) | DC50 [1] [nM] | BRM HiBit Degradation Maximum (%) [1] | Dmax [2] [%] | DC50 [2] [nM]
Cc1ncsc1-c1ccc([C@H](C)NC(=O)[C@@H]2C[C@@H](O)CN2C(=O)[C@H](C(C)C)n2cnc(N3CC4(CN(c5ccc6cc(-c7ccccc7O)nnc6c5)C4)C3)n2)cc1 [Compound 267, (2S,4R)-4-hydroxy-1-[(2S)-2-(3-{6-[3-(2-hydroxyphenyl)cinnolin-7-yl]-2,6-diazaspiro[3.3]heptan-2-yl}-1,2,4-triazol-1-yl)-3-methylbutanoyl]-N-[(1S)-1-[4-(4-methyl-1,3-thiazol-5-yl)phenyl]ethyl]pyrrolidine-2-carboxamide] | > 100 | B (“B” indicates maximum degradation ≥50%) | < 50 | 
Cc1ncsc1-c1ccc([C@H](C)NC(=O)[C@@H]2C[C@@H](O)CN2C(=O)C(C(C)C)n2cc(N3C4CCC3CN(c3ccc5cc(-c6ccccc6O)nnc5c3)C4)nn2)cc1 (stereo partly drawn) [Compound 268, (2S,4R)-4-hydroxy-1-(2-(4-(3-(3-(2-hydroxyphenyl)cinnolin-7-yl)-3,8-diazabicyclo[3.2.1]octan-8-yl)-1H-1,2,3-triazol-1-yl)-3-methylbutanoyl)-N-((S)-1-(4-(4-methylthiazol-5-yl)phenyl)ethyl)pyrrolidine-2-carboxamide] | > 100 | A (“A” indicates maximum degradation ≥75%) | < 50 | 
Cc1ncsc1-c1ccc([C@H](C)NC(=O)[C@@H]2C[C@@H](O)CN2C(=O)C(C(C)C)n2cc(N3CCC(C4CN(c5ccc6nnc(-c7ccccc7O)cc6c5)C4)C3)nn2)cc1 (stereo partly drawn) [Compound 269, (2S,4R)-4-hydroxy-1-(2-(4-(3-(1-(3-(2-hydroxyphenyl)cinnolin-6-yl)azetidin-3-yl)pyrrolidin-1-yl)-1H-1,2,3-triazol-1-yl)-3-methylbutanoyl)-N-((S)-1-(4-(4-methylthiazol-5-yl)phenyl)ethyl)pyrrolidine-2-carboxamide] | < 10 | A (“A” indicates maximum degradation ≥75%) | > 75 | > 10
Cc1ncsc1-c1ccc([C@H](C)NC(=O)[C@@H]2C[C@@H](O)CN2C(=O)C(C(C)C)n2cc(N3CCCC(CN4CCN(c5ccc6nnc(-c7ccccc7O)cc6c5)CC4)C3)nn2)cc1 (stereo partly drawn) [Compound 270, (2S,4R)-4-hydroxy-1-(2-(4-(3-((4-(3-(2-hydroxyphenyl)cinnolin-6-yl)piperazin-1-yl)methyl)piperidin-1-yl)-1H-1,2,3-triazol-1-yl)-3-methylbutanoyl)-N-((S)-1-(4-(4-methylthiazol-5-yl)phenyl)ethyl)pyrrolidine-2-carboxamide] | < 10 | A (“A” indicates maximum degradation ≥75%) | > 75 | > 10
Cc1ncsc1-c1ccc([C@H](C)NC(=O)[C@@H]2C[C@@H](O)CN2C(=O)[C@H](C(C)C)n2cnc(N3CC4(CN(c5ccc6cc(-c7ccccc7O)nnc6c5)C4)C3)c2)cc1 [Compound 271, (2S,4R)-4-hydroxy-1-((S)-2-(4-(6-(3-(2-hydroxyphenyl)cinnolin-7-yl)-2,6-diazaspiro[3.3]heptan-2-yl)-1H-imidazol-1-yl)-3-methylbutanoyl)-N-((S)-1-(4-(4-methylthiazol-5-yl)phenyl)ethyl)pyrrolidine-2-carboxamide] | > 10 | A (“A” indicates maximum degradation ≥75%) | < 50 | 
Cc1ncsc1-c1ccc([C@H](C)NC(=O)[C@@H]2C[C@@H](O)CN2C(=O)[C@H](C(C)C)n2cnc(N3CC4(CN(c5ccc6nnc(-c7ccccc7O)cc6c5)C4)C3)c2)cc1 [Compound 272, (2S,4R)-4-hydroxy-1-((S)-2-(4-(6-(3-(2-hydroxyphenyl)cinnolin-6-yl)-2,6-diazaspiro[3.3]heptan-2-yl)-1H-imidazol-1-yl)-3-methylbutanoyl)-N-((S)-1-(4-(4-methylthiazol-5-yl)phenyl)ethyl)pyrrolidine-2-carboxamide] | > 100 | A (“A” indicates maximum degradation ≥75%) | < 50 | 
C#Cc1ccc([C@H](C)NC(=O)[C@@H]2C[C@@H](O)CN2C(=O)[C@@H](c2cc(N3CC4(CN(c5ccc6cc(-c7ccccc7O)nnc6c5)C4)C3)no2)C(C)C)c(OC)c1 [Compound 273, (2S,4R)-N-((S)-1-(4-ethynyl-2-methoxyphenyl)ethyl)-4-hydroxy-1-((R)-2-(3-(6-(3-(2-hydroxyphenyl)cinnolin-7-yl)-2,6-diazaspiro[3.3]heptan-2-yl)isoxazol-5-yl)-3-methylbutanoyl)pyrrolidine-2-carboxamide] | < 10 | A (“A” indicates maximum degradation ≥75%) | < 50 | 
C#Cc1ccc([C@H](C)NC(=O)[C@@H]2C[C@@H](O)CN2C(=O)[C@@H](c2cc(N3CC4(CN(c5ccc6cc(-c7ccccc7O)nnc6c5)C4)C3)no2)C(C)C)cc1 [Compound 274, (2S,4R)-N-((S)-1-(4-ethynylphenyl)ethyl)-4-hydroxy-1-((R)-2-(3-(6-(3-(2-hydroxyphenyl)cinnolin-7-yl)-2,6-diazaspiro[3.3]heptan-2-yl)isoxazol-5-yl)-3-methylbutanoyl)pyrrolidine-2-carboxamide] | < 10 | A (“A” indicates maximum degradation ≥75%) | < 50 | 
Cc1ncsc1-c1ccc([C@H](C)NC(=O)[C@@H]2C[C@@H](O)CN2C(=O)C(C(C)C)n2cc(N3CCCC4(CCN(c5ccc6nnc(-c7ccccc7O)cc6c5)CC4)C3)nn2)cc1 (stereo partly drawn) [Compound 275] | < 10 | A (“A” indicates maximum degradation ≥75%) | > 75 | > 10
Cc1ncsc1-c1ccc([C@H](C)NC(=O)[C@@H]2C[C@@H](O)CN2C(=O)C(C(C)C)n2cc(N3CCC34CN(c3ccc5nnc(-c6ccccc6O)cc5c3)C4)nn2)cc1 (stereo partly drawn) [Compound 276] |  | C (“C” indicates maximum degradation <50%) | > 75 | > 10
Cc1ncsc1-c1ccc([C@H](C)NC(=O)[C@@H]2C[C@@H](O)CN2C(=O)C(C(C)C)n2cc(N3CCC4(CCN4c4ccc5nnc(-c6ccccc6O)cc5c4)C3)nn2)cc1 (stereo partly drawn) [Compound 277] | < 10 | A (“A” indicates maximum degradation ≥75%) | < 50 | 
Cc1ncsc1-c1ccc([C@H](C)NC(=O)[C@@H]2C[C@@H](O)CN2C(=O)C(C(C)C)n2cc(N3CCC4(CC3)CCN4c3ccc4nnc(-c5ccccc5O)cc4c3)nn2)cc1 (stereo partly drawn) [Compound 278] | < 10 | A (“A” indicates maximum degradation ≥75%) | > 50 | > 10
Cc1ncsc1-c1ccc([C@H](C)NC(=O)[C@@H]2C[C@@H](O)CN2C(=O)C(C(C)C)n2cc(N3CCC4(CCN(c5ccc6nnc(-c7ccccc7O)cc6c5)CC4)C3)nn2)cc1 (stereo partly drawn) [Compound 279] | < 10 | A (“A” indicates maximum degradation ≥75%) | > 75 | > 10
Cc1ncsc1-c1ccc([C@H](C)NC(=O)[C@@H]2C[C@@H](O)CN2C(=O)C(C(C)C)n2cc(N3CCN(CC4CCCN(c5ccc6nnc(-c7ccccc7O)cc6c5)C4)CC3)nn2)cc1 (stereo partly drawn) [Compound 280] | < 10 | A (“A” indicates maximum degradation ≥75%) | > 75 | < 10
Cc1ncsc1-c1ccc([C@H](C)NC(=O)[C@@H]2C[C@@H](O)CN2C(=O)C(C(C)C)n2cc(N3CCN(CC4CCN(c5ccc6nnc(-c7ccccc7O)cc6c5)CC4)CC3)nn2)cc1 (stereo partly drawn) [Compound 281] | < 10 | A (“A” indicates maximum degradation ≥75%) | > 75 | < 10
Cc1ncsc1-c1ccc([C@H](C)NC(=O)[C@@H]2C[C@@H](O)CN2C(=O)C(C(C)C)n2cc(N3CCN(CN4CCN(c5ccc6nnc(-c7ccccc7O)cc6c5)CC4)CC3)nn2)cc1 (stereo partly drawn) [Compound 282] | < 10 | A (“A” indicates maximum degradation ≥75%) | > 75 | < 10
CC(C)[C@@H](C(=O)N1C[C@H](O)C[C@H]1C(=O)N[C@@H](C)c1ccc(F)cc1)c1cc(N2CC3(CC(c4cc5nnc(-c6ccccc6O)cc5cc4C(F)F)C3)C2)no1 [Compound 283] | < 10 | A (“A” indicates maximum degradation ≥75%) | < 50 | 
C#Cc1ccc([C@H](C)NC(=O)[C@@H]2C[C@@H](O)CN2C(=O)[C@@H](c2cc(N3CC4(CN(c5ccc6cc(-c7ccccc7O)nnc6c5)C4)C3)no2)C(C)C)c(Cl)c1 [Compound 284] | < 10 | A (“A” indicates maximum degradation ≥75%) | < 50 | 
Cc1ncsc1-c1ccc([C@H](C)NC(=O)[C@@H]2C[C@@H](O)CN2C(=O)C(C(C)C)n2cc(N3C4CCC3CN(c3ccc5nnc(-c6ccccc6O)cc5c3)C4)nn2)cc1 (stereo partly drawn) [Compound 285] | < 10 | A (“A” indicates maximum degradation ≥75%) | > 75 | > 10
